We go through 1 substance from patent publication US20240165148A1, “HYALURONIC ACID-CONJUGATED DIPALMITOYL PHOSPHATIDYL ETHANOLAMINE IN COMBINATION WITH NON-STEROIDAL ANTI-INFLAMMATORY DRUGS (NSAIDS) FOR TREATING OR ALLEVIATING INFLAMMATORY DISEASES” (priority 2021, published 2024).

Entries after “also recorded” stand apart in the source; their conditions may differ.

Test [1] concerns LTB4 production in the hippocampus (HC). Conditions: LPS-stimulated rats, Student's T test.
Procedure: (§1) Male Sprague-Dawley rats were purchased from Harlan laboratories, fed ad libitum and housed in accordance with animal facility guidelines. Animals were assigned 10 each to the 7 groups, in accordance with the treatment protocol described below. Body temperature (BT) was measured at all treatment time-points, to evaluate the effects of drug treatment on the LPS-induced changes in BT. On the second day of the experiment, 2 hours post- drug treatment, rats were sacrificed by decapitation after a short anesthesia (with a mixture of isoflurane-oxygen in air inhalation), blood was collected and brain regions (hypothalamus and hippocampus) immediately extracted. Brain regions were manually homogenized in a PBS solution containing a cocktail of phosphatase/protease inhibitors. Homogenates were centrifuged at 4° C., 10,000 rpm, for 10 minutes. Supernatants were collected and stored at −80° C. for further determination.
(§2) Leukotriene B4 (LTB4) levels were determined in the hypothalamus and hippocampus samples, using commercially available ELISA kits.
(§3) Seven groups of rats, ten rats in each group, were administered treatment intra-peritoneally, according to the following treatment regimens: • 1)- Control group- Animals were treated with vehicle control (NaCl 0.9% 0.2 ml); • 2) LPS: Animals were treated with vehicle control at 6 and 2 hours prior to LPS (1 mg/kg) injection. […]
Test [2] concerns LTB4 production in the hypothalamus (HT). Conditions: LPS-stimulated rats, Student's T test.
Procedure: as §1, §2, §3

As to “Di-palmitoyl (C-16) phosphatidyl ethanolamine (DPPE) conjugated to hyaluronic acid (Hy) [HyDPPE]”, the “Effect on LPS-induced LTB4 production (in words)” value in test [1] is recorded as “counteracted the LPS-induced production of LTB4; also recorded: reversed the increased LTB4 production”; in test [2] it was “counteracted the LPS-induced production of LTB4”.
